This is an account of results in US10919841B2, “Monoamine reuptake inhibitors” (Research Triangle Institute, priority 2009, dated 2021).

Entries after “also recorded” stand apart in the source; their conditions may differ.

T2 sequence (Q01959 whole entry): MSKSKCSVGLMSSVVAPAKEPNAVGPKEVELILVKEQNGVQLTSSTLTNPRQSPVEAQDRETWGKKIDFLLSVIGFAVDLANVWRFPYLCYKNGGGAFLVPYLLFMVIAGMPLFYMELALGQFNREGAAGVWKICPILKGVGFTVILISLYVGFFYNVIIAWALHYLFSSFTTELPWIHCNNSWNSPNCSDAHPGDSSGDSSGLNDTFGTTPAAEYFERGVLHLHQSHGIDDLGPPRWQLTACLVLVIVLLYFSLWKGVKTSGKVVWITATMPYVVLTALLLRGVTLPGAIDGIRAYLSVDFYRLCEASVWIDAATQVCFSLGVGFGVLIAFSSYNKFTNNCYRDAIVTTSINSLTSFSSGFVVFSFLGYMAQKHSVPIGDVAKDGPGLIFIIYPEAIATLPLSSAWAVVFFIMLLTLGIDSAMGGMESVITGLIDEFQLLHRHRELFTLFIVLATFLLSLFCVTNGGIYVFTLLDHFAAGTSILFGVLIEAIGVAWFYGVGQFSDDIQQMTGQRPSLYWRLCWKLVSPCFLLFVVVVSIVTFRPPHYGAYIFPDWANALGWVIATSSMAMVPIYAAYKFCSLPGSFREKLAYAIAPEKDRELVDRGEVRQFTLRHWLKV
T1 sequence (P23975 whole entry): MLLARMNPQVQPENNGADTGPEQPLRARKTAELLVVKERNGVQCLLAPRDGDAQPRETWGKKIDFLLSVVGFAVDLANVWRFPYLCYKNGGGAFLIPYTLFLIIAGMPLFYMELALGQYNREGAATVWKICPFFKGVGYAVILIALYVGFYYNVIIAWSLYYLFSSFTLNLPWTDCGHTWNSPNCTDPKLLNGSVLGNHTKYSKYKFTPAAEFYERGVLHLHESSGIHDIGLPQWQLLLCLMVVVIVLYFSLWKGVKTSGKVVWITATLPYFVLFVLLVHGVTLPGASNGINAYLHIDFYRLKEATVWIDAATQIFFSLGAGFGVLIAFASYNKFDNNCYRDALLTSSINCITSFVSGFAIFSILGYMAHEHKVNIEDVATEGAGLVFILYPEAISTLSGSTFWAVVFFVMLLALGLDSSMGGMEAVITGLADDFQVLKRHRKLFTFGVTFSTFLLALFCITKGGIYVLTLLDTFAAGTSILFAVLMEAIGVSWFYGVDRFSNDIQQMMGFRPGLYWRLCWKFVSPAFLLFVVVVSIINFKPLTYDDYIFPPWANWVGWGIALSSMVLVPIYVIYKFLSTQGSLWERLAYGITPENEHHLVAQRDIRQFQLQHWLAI

One assay addresses T1, (h)NET (Homo sapiens, UniProt P23975). The assay can be described thus: block of [3H]norepinephrine reuptake in HEK-(h)NET cells. The note with it: read-out: IC50 for NE uptake inhibition; [3H]NE.
With `CCC(NC(C)(C)C)C(=O)c1ccc(Cl)c(Cl)c1` (stereo not shown) [Compound 2aa, 2-(tert-Butylamino)-3′,4′-dichlorobutyrophenone], the IC50 (usually the point on the concentration scale where inhibition reaches its midpoint) was 135 nM.
Take `CC(NC1CCC1)C(=O)c1cccc(Cl)c1` (stereo not shown) [Compound 2y, 2-(N-Cyclobutylamino)-3′-chloropropiophenone]: the IC50 came out at 86 nM.

Staying with this assay, now noted: read-out: Uptake, IC50 [3H]NE; mean ± standard error of three independent experiments.
Take `CC(NC1CCC1)C(=O)c1cccc(Cl)c1` (stereo not shown) [Compound 2y, 2-(N-Cyclobutylamino)-3′-chloropropiophenone]: the IC50 worked out at 86 nM.

The assay is the same for the next values; noted with them: relative to bupropion.
`CCC(NC(C)(C)C)C(=O)c1ccc(Cl)c(Cl)c1` (stereo not shown) [Compound 2aa, 2-(tert-Butylamino)-3′,4′-dichlorobutyrophenone]: the “times better as NE uptake inhibitors than bupropion” value worked out at 10 times.
Still for that read-out and setting: to `CC(NC1CCC1)C(=O)c1cccc(Cl)c1` (stereo not shown) [Compound 2y, 2-(N-Cyclobutylamino)-3′-chloropropiophenone] belongs 17 times.

Another assay addresses T2, (h)DAT (Homo sapiens, UniProt Q01959).
T2 construct: expressed in transfected cells
The assay can be described thus: block of [3H]dopamine reuptake in HEK-(h)DAT cells. In kind it is cell-based.
Settings: not given
Turning to `CCC(NC(C)(C)C)C(=O)c1ccc(Cl)c(Cl)c1` (stereo not shown) [Compound 2aa, 2-(tert-Butylamino)-3′,4′-dichlorobutyrophenone], the “DA uptake inhibition, in words” value is listed as “slightly lower IC50 values than 2j”.

The assay is the same for the next values; noted with them: [3H]DA; read-out: IC50 for DA uptake inhibition.
For the compound `CC(NC1CCC1)C(=O)c1cccc(Cl)c1` (stereo not shown) [Compound 2y, 2-(N-Cyclobutylamino)-3′-chloropropiophenone], the IC50 is 258 nM.

The same assay, now with this note: mean ± standard error of three independent experiments; read-out: Uptake, IC50 [3H]DA.
For `CCC(NC(C)(C)C)C(=O)c1ccc(Cl)c(Cl)c1` (stereo not shown) [Compound 2aa, 2-(tert-Butylamino)-3′,4′-dichlorobutyrophenone], the IC50 stood at 175 nM.

Staying with this assay, now noted: relative to bupropion.
As for `CC(NC1CCC1)C(=O)c1cccc(Cl)c1` (stereo not shown) [Compound 2y, 2-(N-Cyclobutylamino)-3′-chloropropiophenone], the “times more potent than bupropion as DA uptake inhibitor” value came out at 3.7 times.

In another assay the target is T1, (h)NET. The assay can be described thus: competition binding with [125I]RTI-55 at (h)NET stably expressed in HEK293 cells. As to conditions: read-out: Binding, Ki NET; mean ± standard error of three independent experiments.
Regarding `CCC(NC(C)(C)C)C(=O)c1ccc(Cl)c(Cl)c1` (stereo not shown) [Compound 2aa, 2-(tert-Butylamino)-3′,4′-dichlorobutyrophenone], the Ki – broadly, the dissociation constant of the complex between target and ligand, obtained from inhibition or displacement – turned out to be 2240 nM.
The same measure, in the same setting: to `CC(NC1CCC1)C(=O)c1cccc(Cl)c1` (stereo not shown) [Compound 2y, 2-(N-Cyclobutylamino)-3′-chloropropiophenone] belongs 1800 nM.

For another assay, the target named is T2, (h)DAT. Kind of assay: competition binding with [125I]RTI-55 at (h)DAT stably expressed in HEK293 cells. As to conditions: mean ± standard error of three independent experiments.
With `CCC(NC(C)(C)C)C(=O)c1ccc(Cl)c(Cl)c1` (stereo not shown) [Compound 2aa, 2-(tert-Butylamino)-3′,4′-dichlorobutyrophenone], the Ki was determined as 278 nM.
In turn, `CC(NC1CCC1)C(=O)c1cccc(Cl)c1` (stereo not shown) [Compound 2y, 2-(N-Cyclobutylamino)-3′-chloropropiophenone] gave an inhibitory constant (Ki) of 343 nM.

The test system of the next assay is rats. The assay can be described thus: cocaine discrimination (2-lever operant), i.p. administration. The note with it: Rattus norvegicus, ip, read-out: % cocaine lever responding.
Consider `CCC(NC(C)(C)C)C(=O)c1ccc(Cl)c(Cl)c1` (stereo not shown) [Compound 2aa, 2-(tert-Butylamino)-3′,4′-dichlorobutyrophenone], for which the responders at 5 mg/kg was found to be 1%, the responders at 10 mg/kg came to 10% and the responders at 25 mg/kg is 10%.

The assay is the same for the next values; noted with them: Rattus norvegicus, ip, read-out: Full Generalization ED50.
Turning to `CCC(NC(C)(C)C)C(=O)c1ccc(Cl)c(Cl)c1` (stereo not shown) [Compound 2aa, 2-(tert-Butylamino)-3′,4′-dichlorobutyrophenone], the ED50 – broadly, the midpoint of the dose-response relation – came to 15 mg/kg.

Another assay has as its system mice. The assay can be described thus: locomotor activity, 8-h time course protocol. In kind it is in vivo. The note with it: 1-h and 8-h tests compared.
Turning to `CCC(NC(C)(C)C)C(=O)c1ccc(Cl)c(Cl)c1` (stereo not shown) [Compound 2aa, 2-(tert-Butylamino)-3′,4′-dichlorobutyrophenone], the “locomotor stimulant activity across the 1-h and 8-h protocols, in words” value was “weak stimulants in both tests; also recorded: moderate activity in the 1-h test with increased activity in the time-course study”.

The assay is the same for the next values; noted with them: Mus musculus, read-out: Locomotor Activity 8-Hour % Peak Cocaine, percent of cocaine's maximal effect, 30 min period of maximum stimulation.
On to `CCC(NC(C)(C)C)C(=O)c1ccc(Cl)c(Cl)c1` (stereo not shown) [Compound 2aa, 2-(tert-Butylamino)-3′,4′-dichlorobutyrophenone], for which the Emax came to 84%.

Staying with this assay, now noted: Mus musculus; dose to produce 50% of the compound's maximal effect; 8-h; read-out: Locomotor Activity 8-Hour ED50.
As to `CCC(NC(C)(C)C)C(=O)c1ccc(Cl)c(Cl)c1` (stereo not shown) [Compound 2aa, 2-(tert-Butylamino)-3′,4′-dichlorobutyrophenone], the ED50 was found to be 42.2 mg/kg.

Staying with this assay, now noted: duration of locomotor activity.
As to `CCC(NC(C)(C)C)C(=O)c1ccc(Cl)c(Cl)c1` (stereo not shown) [Compound 2aa, 2-(tert-Butylamino)-3′,4′-dichlorobutyrophenone], the “Locomotor Activity 8-Hour Time, min Period, length” value amounted to 60 min.

Staying with this assay, now noted: time period of maximum effect.
As for `CCC(NC(C)(C)C)C(=O)c1ccc(Cl)c(Cl)c1` (stereo not shown) [Compound 2aa, 2-(tert-Butylamino)-3′,4′-dichlorobutyrophenone], the “Locomotor Activity 8-Hour Time, min Period, max” value is 0 to 30 min.

For a further assay, the system named is mice. Kind of assay: locomotor activity, 1-h observation protocol. Format: in vivo. The note with it: Mus musculus, 0.5 h, read-out: Locomotor Activity 1-Hour % Peak Cocaine.
Consider `CCC(NC(C)(C)C)C(=O)c1ccc(Cl)c(Cl)c1` (stereo not shown) [Compound 2aa, 2-(tert-Butylamino)-3′,4′-dichlorobutyrophenone], for which the Emax stood at 41%.

The same assay, now with this note: Mus musculus; dose to produce 50% of the compound's maximal effect; 1-h.
`CCC(NC(C)(C)C)C(=O)c1ccc(Cl)c(Cl)c1` (stereo not shown) [Compound 2aa, 2-(tert-Butylamino)-3′,4′-dichlorobutyrophenone] had an ED50 of 50.3 mg/kg.

The next assay deals with T3, (h)SERT (Homo sapiens, UniProt P31645).
T3 construct: expressed in transfected cells; host or cells: HEK293
T3 sequence (P31645 whole entry): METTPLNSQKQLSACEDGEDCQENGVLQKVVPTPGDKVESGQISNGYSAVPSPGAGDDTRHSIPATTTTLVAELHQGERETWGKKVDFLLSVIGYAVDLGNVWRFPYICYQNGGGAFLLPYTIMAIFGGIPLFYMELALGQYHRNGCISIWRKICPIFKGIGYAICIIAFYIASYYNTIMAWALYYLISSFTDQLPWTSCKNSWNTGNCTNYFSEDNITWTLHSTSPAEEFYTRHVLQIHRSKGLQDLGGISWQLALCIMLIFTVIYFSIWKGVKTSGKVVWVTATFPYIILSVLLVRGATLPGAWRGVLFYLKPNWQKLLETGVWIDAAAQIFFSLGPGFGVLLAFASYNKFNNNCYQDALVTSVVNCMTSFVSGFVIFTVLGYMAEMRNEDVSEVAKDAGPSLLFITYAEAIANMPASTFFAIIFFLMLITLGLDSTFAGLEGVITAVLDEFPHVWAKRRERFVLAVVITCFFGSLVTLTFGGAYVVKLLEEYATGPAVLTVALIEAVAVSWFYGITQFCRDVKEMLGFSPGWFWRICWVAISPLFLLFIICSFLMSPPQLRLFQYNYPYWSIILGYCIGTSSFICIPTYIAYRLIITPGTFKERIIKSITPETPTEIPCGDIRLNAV
Test: not given
The note with it: mean ± standard error of three independent experiments; read-out: Binding, Ki SERT.
Turning to `CCC(NC(C)(C)C)C(=O)c1ccc(Cl)c(Cl)c1` (stereo not shown) [Compound 2aa, 2-(tert-Butylamino)-3′,4′-dichlorobutyrophenone], the Ki came out at 860 nM.
On the same count and under the same terms, to `CC(NC1CCC1)C(=O)c1cccc(Cl)c1` (stereo not shown) [Compound 2y, 2-(N-Cyclobutylamino)-3′-chloropropiophenone] belongs 3450 nM.

Another assay addresses T3, (h)SERT. Kind of assay: block of [3H]serotonin reuptake in HEK-(h)SERT cells. As to conditions: [3H]5HT; read-out: IC50 for 5HT uptake inhibition. Format: cell-based.
Turning to `CC(NC1CCC1)C(=O)c1cccc(Cl)c1` (stereo not shown) [Compound 2y, 2-(N-Cyclobutylamino)-3′-chloropropiophenone], the IC50 stood at 185 nM.

The assay is the same for the next values; noted with them: mean ± standard error of three independent experiments; read-out: Uptake, IC50 [3H]5-HT.
For `CCC(NC(C)(C)C)C(=O)c1ccc(Cl)c(Cl)c1` (stereo not shown) [Compound 2aa, 2-(tert-Butylamino)-3′,4′-dichlorobutyrophenone], the IC50 worked out at 790 nM.
